# From patent publication US10682319B2, “Necrosis inhibitors” (National Institute of Biological Sciences, Beijing, priority 2014, dated 2020)
# Read-outs that look alike come from different tables or passages of the source.
# How the values were obtained:
# [1] = molecular target: T1, Recombinant full-length RIPK1 protein with N-terminal GST-tag (hRIP1 kinase) (Homo sapiens, UniProt Q13546); experiment: Kinase assay of RIPK1 (ADP-Glo); format: biochemical; conditions: for IC50: RIPK1 161 nM, ATP 50 uM, MBP 20 uM, 90 min
# T1 construct: Recombinant full-length RIPK1 protein with N-terminal GST-tag; GST (N); purchased SignalChem R07-34G
# T1 sequence (Q13546 1-671): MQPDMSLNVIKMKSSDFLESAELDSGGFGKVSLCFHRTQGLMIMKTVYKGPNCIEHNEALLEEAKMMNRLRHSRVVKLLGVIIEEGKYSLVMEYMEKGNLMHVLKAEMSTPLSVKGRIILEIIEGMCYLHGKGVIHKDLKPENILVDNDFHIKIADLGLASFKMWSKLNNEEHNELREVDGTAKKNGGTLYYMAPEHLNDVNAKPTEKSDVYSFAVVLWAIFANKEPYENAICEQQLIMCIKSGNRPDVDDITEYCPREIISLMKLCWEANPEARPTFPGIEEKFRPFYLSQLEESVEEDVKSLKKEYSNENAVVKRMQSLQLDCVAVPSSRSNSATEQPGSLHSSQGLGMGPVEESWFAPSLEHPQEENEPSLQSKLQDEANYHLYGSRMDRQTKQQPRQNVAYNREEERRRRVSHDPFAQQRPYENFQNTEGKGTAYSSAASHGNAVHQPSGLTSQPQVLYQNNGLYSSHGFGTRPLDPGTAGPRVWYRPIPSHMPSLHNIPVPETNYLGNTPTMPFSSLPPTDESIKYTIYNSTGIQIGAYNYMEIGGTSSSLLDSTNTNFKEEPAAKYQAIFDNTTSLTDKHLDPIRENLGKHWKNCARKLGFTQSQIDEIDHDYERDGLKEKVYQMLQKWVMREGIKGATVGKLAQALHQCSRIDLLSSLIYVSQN
# Method: Recombinant full-length RIPK1 protein with N-terminal GST-tag (Cat # R07-34G) was purchased from SignalChem. The ADP-Glo™ kinase assay kit (Cat # V9102) was from Promega. MBP (cat # M2295) protein and all the other chemicals were from Sigma. The 384-well assay plates (Cat #3674, white, opaque) were purchased from Corning.
# Kinase activity assay and data analysis: The RIPK1 kinase assay was performed in white 384-well plate. The assay buffer contained 25 mM HEPES (pH7.2), 20 mM MgCl2, 12.5 mM MnCl2, 5 mM EGTA, 2 mM EDTA, 12.5 mM β-glycerol phosphate and 2 mM DTT. RIPK1 was first incubated with compounds or DMSO control for 15 min, then ATP/MBP substrate mixture was added to initiate the reaction. The final concentration of RIPK1 was 161 nM, while the final concentration of ATP was 50 uM, and MBP 20 uM. After 90 min reaction at room temperature, the ADP-Glo reagent and detection solution were added following the technical manual of ADP-Glo™ kinase assay kit (Promega). The luminescence was measured on PerkinElmer Enspire. The data was analyzed using Graphpad Prism (GraphPad Software; www.graphpad.com). The curves were fitted using a non-linear regression model with a sigmoidal dose response.
# HT-29 cells = experiment: Necrosis assay (TNF-α/Smac mimetic/z-VAD induced necrosis, cell viability by ATP level); format: cell-based
# Summary of the method: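 Necrosis induced by 20 ng/ml TNF-α, 100 nM Smac mimetic and […], with compound added concurrently for 24 h. Viability read as ATP luminescence (CellTiter-Glo), normalized to DMSO-treated cells; duplicates.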
# [2] = Homo sapiens, HT-29, 24 h, HT-29, TNF-α + Smac mimetic + z-VAD, 24 hrs, ATP level, values given as ranges in uM, read-out: EC50 (inhibition of necrosis in HT-29 cells)
# [3] = Homo sapiens, HT-29, cell necrosis assay, exemplary data table, read-out: Cell viability assay, EC50
# [4] = HT-29, TNF-α + Smac mimetic + z-VAD, 24 hrs, ATP level, values given as ranges in nM, read-out: EC50 (inhibition of necrosis in HT-29 cells)
Compound,EC50 (HT-29 cells; [2]),further results
"CCC(C)(C)C(=O)N(C)Cc1ccccc1Cl [Compound 14, N-(2-chlorobenzyl)-N,2,2-trimethylbutanamide]",1 to 10 µM,inhibition at 2 µM ([1]; at 2uM compound): 66%; EC50 (HT-29 cells; [3]): 3.28 µM
"CCC(C)(C)C(=O)N(C)Cc1cccc(F)c1 [Compound 16, N-(3-fluorobenzyl)-N,2,2-trimethylbutanamide]",–,IC50 [1]: 52 nM; EC50 (HT-29 cells; [4]): 0.001 to 1 µM
"CCC(C)(C)C(=O)N(C)Cc1cc(F)cc(F)c1F [Compound 75, N,2,2-trimethyl-N-(2,3,5-trifluorobenzyl)butanamide]",–,IC50 [1]: 33 nM; EC50 (HT-29 cells; [4]): 0.001 to 1 µM
"CCC(C)(C)C(=O)N(O)Cc1ccccc1 [Compound 92, N-benzyl-N-hydroxy-2,2-dimethylbutanamide]",–,IC50 [1]: 13.2 nM; EC50 (HT-29 cells; [4]): 0.001 to 1 µM; EC50 (HT-29 cells; [3]): 0.0284 µM
"CCC(C)(C)C(=O)N(O)Cc1cc(F)c(F)c(F)c1 [Compound 99, N-hydroxy-2,2-dimethyl-N-(3,4,5-trifluorobenzyl)butanamide]",–,IC50 [1]: 29.6 nM; EC50 (HT-29 cells; [4]): 0.001 to 1 µM; EC50 (HT-29 cells; [3]): 0.0457 µM
CC(F)(F)C(C)(C)C(=O)N(O)Cc1ccc(F)cc1F [Compound S10],1 to 100 µM,–
CC(F)(F)C(C)(C)C(=O)N(O)Cc1ccc(F)c(F)c1 [Compound S11],1 to 100 µM,–
CC(F)(F)C(C)(C)C(=O)N(O)Cc1cc(F)c(F)cc1F [Compound S12],1 to 100 µM,–
CC(F)(F)C(C)(C)C(=O)N(O)Cc1cc(F)c(F)c(F)c1 [Compound S13],1 to 100 µM,–
CC(F)(F)C(C)(C)C(=O)N(O)Cc1cc(F)cc(F)c1F [Compound S14],1 to 100 µM,–
CON(Cc1ccc(F)cc1)C(=O)C(C)(C)C(C)(F)F [Compound S15],1 to 100 µM,–
CON(Cc1ccc(F)cc1F)C(=O)C(C)(C)C(C)(F)F [Compound S16],1 to 100 µM,–
CON(Cc1ccc(F)c(F)c1)C(=O)C(C)(C)C(C)(F)F [Compound S17],1 to 100 µM,–
CON(Cc1cc(F)c(F)cc1F)C(=O)C(C)(C)C(C)(F)F [Compound S18],1 to 100 µM,–
CON(Cc1cc(F)c(F)c(F)c1)C(=O)C(C)(C)C(C)(F)F [Compound S19],1 to 100 µM,–
CON(Cc1cc(F)cc(F)c1F)C(=O)C(C)(C)C(C)(F)F [Compound S20],1 to 100 µM,–
